Test results as given in ChEMBL document CHEMBL1201862, “PubChem BioAssay data set” (2004).
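Five concentrations, 48 hours, 96-well plates. GI50: concentration for 50% inhibition of growth.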 The source made the active and inactive calls. Rule as the data show it: active = GI50 up to about 1.1 µM and inactive = higher.

Columns and labels:
Assay in all cases: NCI tumour cell line growth inhibition, 48 h
BT-549 = system: BT-549
DU-145 = system: DU-145
Hs-578T = system: Hs-578T
MDA-MB-231 = system: MDA-MB-231
MDA-MB-435 = system: MDA-MB-435
T47D = system: T47D
PC-3 = system: PC-3

Measured: GI50

COc1ccc(-c2cc(O)c3cc(C)cnc3n2)cc1
inactive: BT-549 2 µM | DU-145 19.2 µM | Hs-578T 4.66 µM | MDA-MB-231 16.2 µM | MDA-MB-435 1.85 µM | T47D 5.38 µM

C=CCN1C(=O)/C(=C/c2ccccc2)N=C1SC1OC(COC(=O)c2ccccc2)C(OC(=O)c2ccccc2)C1OC(=O)c1ccccc1 (stereo unspecified)
inactive: BT-549 > 100 µM | DU-145 > 100 µM | MDA-MB-231 91.2 µM | MDA-MB-435 > 100 µM | PC-3 > 100 µM
